# Publication PMC5795618 (Molecular pharmaceutics, 2017)
# Read-outs that look alike come from different tables or passages of the source.
# What was measured:
# [1] = rats; for tissue/plasma ratio: AUC tissue/AUC plasma of 2-PMPA
# [2] = Plasma stability of 2-PMPA prodrugs, human plasma; type: in vitro ADME; conditions: 10 μM, 37 °C
# [3] = rats; for tissue/plasma ratio: AUC tissue/AUC plasma of 2-PMPA; remark: listed apart in the source
# [4] = target: recombinant human GCPII protein (Homo sapiens, UniProt Q04609); assay: GCPII radioenzymatic activity assay; type: biochemical; conditions: read-out: IC50(±SEM)
# recombinant human GCPII protein, sequence (Q04609 whole entry): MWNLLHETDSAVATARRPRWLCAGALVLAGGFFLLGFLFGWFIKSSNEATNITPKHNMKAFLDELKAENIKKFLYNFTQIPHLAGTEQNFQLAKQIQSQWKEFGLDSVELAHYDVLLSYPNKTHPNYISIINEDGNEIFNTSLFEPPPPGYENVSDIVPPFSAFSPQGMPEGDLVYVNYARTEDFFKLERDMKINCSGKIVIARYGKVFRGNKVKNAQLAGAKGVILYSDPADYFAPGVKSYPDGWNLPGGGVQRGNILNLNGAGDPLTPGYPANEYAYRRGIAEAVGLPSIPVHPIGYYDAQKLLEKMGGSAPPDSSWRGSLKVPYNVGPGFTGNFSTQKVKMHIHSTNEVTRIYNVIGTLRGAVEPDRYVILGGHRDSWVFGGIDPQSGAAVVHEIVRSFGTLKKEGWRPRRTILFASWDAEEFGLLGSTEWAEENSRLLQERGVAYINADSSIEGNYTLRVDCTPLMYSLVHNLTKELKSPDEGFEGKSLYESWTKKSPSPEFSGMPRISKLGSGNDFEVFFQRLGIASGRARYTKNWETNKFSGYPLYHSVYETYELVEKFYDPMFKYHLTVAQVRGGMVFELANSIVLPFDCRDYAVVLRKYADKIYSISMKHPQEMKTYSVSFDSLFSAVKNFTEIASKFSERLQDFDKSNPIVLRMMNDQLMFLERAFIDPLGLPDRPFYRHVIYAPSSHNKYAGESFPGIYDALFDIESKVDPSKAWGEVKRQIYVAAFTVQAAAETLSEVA
# [5] = cited from earlier work
# [6] = primates, IN 2-PMPA 30 mg/kg; cited from earlier work
# [7] = tested on: GCPII; conditions: cited from earlier work
# [8] = equivalent 2-PMPA administration, cited from earlier work
smiles,measurement,setting,value
"CC(=O)Oc1ccc(COC(=O)CCC(CP(=O)(O)O)C(=O)O)cc1 (stereo not shown) [Compound 1, γ-(4-acetoxybenzyl)-2-PMPA]",tissue/plasma ratio,"[1]; cerebellum, IN",0.26
same,tissue/plasma ratio,"[1]; olfactory bulb, IN",2.2
same,tissue/plasma ratio,"[1]; plasma, IN",1
same,improvement of sciatic nerve to plasma ratio over free 2-PMPA,[1]; IN compound 1 versus equivalent dose of 2-PMPA,7 fold
same,intact prodrug AUC in plasma,"[1]; IN, 10 mg/kg equivalent",8.04 µM·h
same,intact prodrug in brain or sciatic nerve,"[1]; IN, any time point",No intact prodrug was quantifiable
same,Cmax,"[1]; read-out: intact prodrug Cmax in plasma, IN, 10 mg/kg equivalent",22 µM
same,tissue/plasma ratio,"[1]; sciatic nerve, IN",0.84
same,Plasma stability % remaining @60 min Human,[2],42%
same,tissue/plasma ratio,"[3]; cerebellum, IV",0.04
same,fold lower 2-PMPA level after IV as compared to IN,[3]; cerebellum,4 fold
same,tissue/plasma ratio,"[3]; cortex, IV",0.04
same,fold lower 2-PMPA level after IV as compared to IN,[3]; cortex,4.5 fold
same,tissue/plasma ratio,"[3]; olfactory bulb, IV",0.03
same,tissue/plasma ratio,"[3]; plasma, IV",1
same,intact prodrug in brain or sciatic nerve,"[3]; IV, any time point",No intact prodrug was quantifiable
same,Cmax,"[3]; read-out: intact prodrug Cmax in plasma, IV, 10 mg/kg equivalent",0.2 µM
same,tissue/plasma ratio,"[3]; sciatic nerve, IV",0.21
same,fold lower 2-PMPA level after IV as compared to IN,[3]; sciatic nerve,5 fold
same,IC50,[4],3 ± 0.2 nM
"O=C(O)CCC(CP(=O)(O)O)C(=O)O (stereo not shown) [Compound 2-PMPA, 2-(Phosphonomethyl)pentanedioic acid]",oral bioavailability (F),[5],< 2%
same,plasma exposure (AUC),[8]; IN route,79.1 µM·h
same,plasma exposure (AUC),[8]; intraperitoneal (IP) route,77.1 µM·h
CCCCOC(=O)CCC(CP(=O)(O)O)C(=O)O (stereo not shown) [Compound 3],IC50,[4]; GCPII inhibition,1 ± 0.1 nM
O=C(CCC(CP(=O)(O)O)C(=O)O)OCc1ccccc1 (stereo not shown) [Compound 4],IC50,[4]; GCPII inhibition,20 ± 1 nM
CCCCCCCCOC(=O)CCC(CP(=O)(O)O)C(=O)O (stereo not shown) [Compound 5],IC50,[4]; GCPII inhibition,2 ± 0.2 nM
